Drawing on US10501489B2, “C17-alkanediyl and alkenediyl derivatives of oleanolic acid and methods of use thereof” (REATA PHARMACEUTICALS, INC., priority 2012, dated 2019), this text covers IC50 for 42 compounds.

The experiment deals with RAW264.7 mouse macrophages. Nature of the experiment: Suppression of IFNγ-induced NO production (nitric oxide production and cell viability assay). The format is cell-based. The following applies: RAW264.7 cells, drug pre-treatment 2 hours, then recombinant mouse IFNγ 24 hours; Griess reagent; normalized to cell viability (WST-1). Here is the method:
Assay results for the suppression of IFNγ-induced NO production are shown for several of the compounds of the present invention in Table 1 below. […] Details regarding this assay are provided in the Examples section below. Nitric Oxide Production and Cell Viability Assay. […] On the next day, cells were pre-treated with DMSO or drug (O-200 nM dose range) for 2 hours, and then treated with recombinant mouse IFNγ (R&D Systems) for 24 hours. Nitric Oxide concentration in media was determined using the Griess reagent system (Promega). Cell viability was determined using WST-1 reagent (Roche). IC50 values were determined based on the suppression of IFNγ induced Nitric Oxide production normalized to cell viability.
With `CC1(C)CC[C@]2(CCC(=O)NC(C)(C)C)CC[C@]3(C)[C@H](C(=O)C=C4[C@@]5(C)C=C(C#N)C(=O)C(C)(C)[C@@H]5CC[C@]43C)[C@@H]2C1` [TX64065], the half-maximal inhibitory concentration (IC50) turned out to be 0.6 nM.
As for `COC(=O)CNC(=O)CC[C@]12CCC(C)(C)C[C@H]1[C@H]1C(=O)C=C3[C@@]4(C)C=C(C#N)C(=O)C(C)(C)[C@@H]4CC[C@@]3(C)[C@]1(C)CC2` [TX64052], the IC50 came to 2 nM.
For `CC1(C)CC[C@]2(CCC(=O)N3CCC(F)(F)C3)CC[C@]3(C)[C@H](C(=O)C=C4[C@@]5(C)C=C(C#N)C(=O)C(C)(C)[C@@H]5CC[C@]43C)[C@@H]2C1` [TX64049], the half-maximal inhibitory concentration (IC50) was determined as 2 nM.
Consider `CC1(C)CC[C@]2(COC(=O)n3ccnc3)CC[C@]3(C)[C@H](C(=O)C=C4[C@@]5(C)C=C(C#N)C(=O)C(C)(C)[C@@H]5CC[C@]43C)[C@@H]2C1` [TX63868], for which the 50% inhibitory concentration (IC50) was 0.7 nM.
On to `CCNC(=O)OCCC[C@]12CCC(C)(C)C[C@H]1[C@H]1C(=O)C=C3[C@@]4(C)C=C(C#N)C(=O)C(C)(C)[C@@H]4CC[C@@]3(C)[C@]1(C)CC2` [TX63983], for which the half-maximal inhibitory concentration (IC50) stood at 5.4 nM.
On to `CN(C)C(=O)CC[C@]12CCC(C)(C)C[C@H]1[C@H]1C(=O)C=C3[C@@]4(C)C=C(C#N)C(=O)C(C)(C)[C@@H]4CC[C@@]3(C)[C@]1(C)CC2` [TX64060], for which the IC50 turned out to be 0.4 nM.
Next, `CC1(C)CC[C@]2(COC(=O)N3CCCC3)CC[C@]3(C)[C@H](C(=O)C=C4[C@@]5(C)C=C(C#N)C(=O)C(C)(C)[C@@H]5CC[C@]43C)[C@@H]2C1` [TX63927]: 1.3 nM; `CC(C)OC(=O)CC[C@]12CCC(C)(C)C[C@H]1[C@H]1C(=O)C=C3[C@@]4(C)C=C(C#N)C(=O)C(C)(C)[C@@H]4CC[C@@]3(C)[C@]1(C)CC2` [TX64043]: 21 nM.
For the compound `CC1(C)CC[C@]2(CCC(=O)OC3CCNCC3)CC[C@]3(C)[C@H](C(=O)C=C4[C@@]5(C)C=C(C#N)C(=O)C(C)(C)[C@@H]5CC[C@]43C)[C@@H]2C1` [TX64055], the IC50 was 1.7 nM.
The value for `CC[C@]12CCC(C)(C)C[C@H]1[C@H]1C(=O)C=C3[C@@]4(C)C=C(C#N)C(=O)C(C)(C)[C@@H]4CC[C@@]3(C)[C@]1(C)CC2` [TX63403] was 8.6 nM; that for `CNC(=O)CC[C@]12CCC(C)(C)C[C@H]1[C@H]1C(=O)C=C3[C@@]4(C)C=C(C#N)C(=O)C(C)(C)[C@@H]4CC[C@@]3(C)[C@]1(C)CC2` [TX63770] was 0.2 nM.
Consider `CC1(C)CC[C@]2(CCC(=O)OC3CCN(C(=O)OC(C)(C)C)CC3)CC[C@]3(C)[C@H](C(=O)C=C4[C@@]5(C)C=C(C#N)C(=O)C(C)(C)[C@@H]5CC[C@]43C)[C@@H]2C1` [TX64053], for which the IC50 was found to be 37 nM.
Turning to `CC1(C)CC[C@]2(CCC(=O)Nc3ccccn3)CC[C@]3(C)[C@H](C(=O)C=C4[C@@]5(C)C=C(C#N)C(=O)C(C)(C)[C@@H]5CC[C@]43C)[C@@H]2C1` [TX64068], the IC50 was 1.1 nM.
As for `CC1(C)CC[C@]2(CCC(N)=O)CC[C@]3(C)[C@H](C(=O)C=C4[C@@]5(C)C=C(C#N)C(=O)C(C)(C)[C@@H]5CC[C@]43C)[C@@H]2C1` [TX64074], the concentration for half-maximal inhibition (IC50) came to 0.3 nM.
`CC1(C)CC[C@]2(CCC(=O)N3CCOCC3)CC[C@]3(C)[C@H](C(=O)C=C4[C@@]5(C)C=C(C#N)C(=O)C(C)(C)[C@@H]5CC[C@]43C)[C@@H]2C1` [TX63763]: the IC50 was 0.4 nM.
In the case of `CC1(C)CC[C@]2(CCC(=O)N3CCC(O)CC3)CC[C@]3(C)[C@H](C(=O)C=C4[C@@]5(C)C=C(C#N)C(=O)C(C)(C)[C@@H]5CC[C@]43C)[C@@H]2C1` [TX64048], the IC50 turned out to be 1.2 nM.
The value for `CC1(C)CC[C@]2(CCC(=O)OC3CCCCC3)CC[C@]3(C)[C@H](C(=O)C=C4[C@@]5(C)C=C(C#N)C(=O)C(C)(C)[C@@H]5CC[C@]43C)[C@@H]2C1` [TX64058] was 29 nM; that for `CC1(C)CC[C@]2(CCC(=O)NCC(=O)O)CC[C@]3(C)[C@H](C(=O)C=C4[C@@]5(C)C=C(C#N)C(=O)C(C)(C)[C@@H]5CC[C@]43C)[C@@H]2C1` [TX64054] was 97 nM.
The value for `CC1(C)CC[C@]2(CCC(=O)NC3CCCCC3)CC[C@]3(C)[C@H](C(=O)C=C4[C@@]5(C)C=C(C#N)C(=O)C(C)(C)[C@@H]5CC[C@]43C)[C@@H]2C1` [TX64057] was 0.8 nM; that for `CC1(C)CC[C@]2(COC(=O)N3CCOCC3)CC[C@]3(C)[C@H](C(=O)C=C4[C@@]5(C)C=C(C#N)C(=O)C(C)(C)[C@@H]5CC[C@]43C)[C@@H]2C1` [TX63926] was 0.7 nM; that for `CC(=O)OCC[C@]12CCC(C)(C)C[C@H]1[C@H]1C(=O)C=C3[C@@]4(C)C=C(C#N)C(=O)C(C)(C)[C@@H]4CC[C@@]3(C)[C@]1(C)CC2` [TX63610] was 2.2 nM.
For `CC1(C)CC[C@]2(CCC(=O)NCC(F)(F)F)CC[C@]3(C)[C@H](C(=O)C=C4[C@@]5(C)C=C(C#N)C(=O)C(C)(C)[C@@H]5CC[C@]43C)[C@@H]2C1` [TX63764], the concentration for half-maximal inhibition (IC50) was determined as 0.7 nM.
For the compound `CC1(C)CC[C@]2(CCC(=O)Nc3ccccc3)CC[C@]3(C)[C@H](C(=O)C=C4[C@@]5(C)C=C(C#N)C(=O)C(C)(C)[C@@H]5CC[C@]43C)[C@@H]2C1` [TX64059], the IC50 came to 1.4 nM.
With `CC1(C)CC[C@]2(CCC(=O)N3CCC3)CC[C@]3(C)[C@H](C(=O)C=C4[C@@]5(C)C=C(C#N)C(=O)C(C)(C)[C@@H]5CC[C@]43C)[C@@H]2C1` [TX63950], the half-maximal inhibitory concentration (IC50) was 0.4 nM.
For `CC1(C)CC[C@]2(CCC(=O)N3CCCC3)CC[C@]3(C)[C@H](C(=O)C=C4[C@@]5(C)C=C(C#N)C(=O)C(C)(C)[C@@H]5CC[C@]43C)[C@@H]2C1` [TX63949], the IC50 came out at 0.6 nM.
As for `COCC[C@]12CCC(C)(C)C[C@H]1[C@H]1C(=O)C=C3[C@@]4(C)C=C(C#N)C(=O)C(C)(C)[C@@H]4CC[C@@]3(C)[C@]1(C)CC2` [TX63609], the IC50 amounted to 2.9 nM.
Consider `CCOC(=O)CC[C@]12CCC(C)(C)C[C@H]1[C@H]1C(=O)C=C3[C@@]4(C)C=C(C#N)C(=O)C(C)(C)[C@@H]4CC[C@@]3(C)[C@]1(C)CC2` [TX64042], for which the IC50 came to 10 nM.
On to `CC1(C)CC[C@]2(CCO)CC[C@]3(C)[C@H](C(=O)C=C4[C@@]5(C)C=C(C#N)C(=O)C(C)(C)[C@@H]5CC[C@]43C)[C@@H]2C1` [TX63608], for which the 50% inhibitory concentration (IC50) stood at 1.1 nM.
Consider `CC1(C)CC[C@]2(CCC(=O)OCc3ccccc3)CC[C@]3(C)[C@H](C(=O)C=C4[C@@]5(C)C=C(C#N)C(=O)C(C)(C)[C@@H]5CC[C@]43C)[C@@H]2C1` [TX64066], for which the IC50 was 20 nM.
Take `CONC(=O)CC[C@]12CCC(C)(C)C[C@H]1[C@H]1C(=O)C=C3[C@@]4(C)C=C(C#N)C(=O)C(C)(C)[C@@H]4CC[C@@]3(C)[C@]1(C)CC2` [TX64056]: the IC50 was found to be 0.3 nM.
Next, `CC(C)NC(=O)CC[C@]12CCC(C)(C)C[C@H]1[C@H]1C(=O)C=C3[C@@]4(C)C=C(C#N)C(=O)C(C)(C)[C@@H]4CC[C@@]3(C)[C@]1(C)CC2` [TX64064]: 0.4 nM; `COC(=O)/C=C/[C@]12CCC(C)(C)C[C@H]1[C@H]1C(=O)C=C3[C@@]4(C)C=C(C#N)C(=O)C(C)(C)[C@@H]4CC[C@@]3(C)[C@]1(C)CC2` [TX63743]: 3.2 nM.
On to `CC1(C)CC[C@]2(CCC(=O)OC(C)(C)C)CC[C@]3(C)[C@H](C(=O)C=C4[C@@]5(C)C=C(C#N)C(=O)C(C)(C)[C@@H]5CC[C@]43C)[C@@H]2C1` [TX64067], for which the 50% inhibitory concentration (IC50) came out at 14 nM.
`CC1(C)CC[C@]2(CCC(=O)NC3COC3)CC[C@]3(C)[C@H](C(=O)C=C4[C@@]5(C)C=C(C#N)C(=O)C(C)(C)[C@@H]5CC[C@]43C)[C@@H]2C1` [TX64044]: the IC50 came to 1.3 nM.
The value for `CC1(C)CC[C@]2(CCC(=O)N3CC[C@H](O)C3)CC[C@]3(C)[C@H](C(=O)C=C4[C@@]5(C)C=C(C#N)C(=O)C(C)(C)[C@@H]5CC[C@]43C)[C@@H]2C1` [TX64047] was 3.3 nM.
For `CCNC(=O)CC[C@]12CCC(C)(C)C[C@H]1[C@H]1C(=O)C=C3[C@@]4(C)C=C(C#N)C(=O)C(C)(C)[C@@H]4CC[C@@]3(C)[C@]1(C)CC2` [TX63768], the IC50 was found to be 0.3 nM.
The value for `CCNC(=O)OCC[C@]12CCC(C)(C)C[C@H]1[C@H]1C(=O)C=C3[C@@]4(C)C=C(C#N)C(=O)C(C)(C)[C@@H]4CC[C@@]3(C)[C@]1(C)CC2` [TX63981] was 3 nM.
For the compound `CC1(C)CC[C@]2(CCC(=O)N3CCNCC3)CC[C@]3(C)[C@H](C(=O)C=C4[C@@]5(C)C=C(C#N)C(=O)C(C)(C)[C@@H]5CC[C@]43C)[C@@H]2C1` [TX64135], the half-maximal inhibitory concentration (IC50) is 1.5 nM.
In the case of `COC(=O)CC[C@]12CCC(C)(C)C[C@H]1[C@H]1C(=O)C=C3[C@@]4(C)C=C(C#N)C(=O)C(C)(C)[C@@H]4CC[C@@]3(C)[C@]1(C)CC2` [TX63742], the IC50 amounted to 2 nM.
Take `CC1(C)CC[C@]2(CCCO)CC[C@]3(C)[C@H](C(=O)C=C4[C@@]5(C)C=C(C#N)C(=O)C(C)(C)[C@@H]5CC[C@]43C)[C@@H]2C1` [TX63744]: the IC50 amounted to 1.1 nM.
The value for `CC1(C)CC[C@]2(CCC(=O)Oc3ccccc3)CC[C@]3(C)[C@H](C(=O)C=C4[C@@]5(C)C=C(C#N)C(=O)C(C)(C)[C@@H]5CC[C@]43C)[C@@H]2C1` [TX64046] was 8.5 nM; that for `CC1(C)CC[C@]2(CCC(=O)N3CCN(C(=O)OC(C)(C)C)CC3)CC[C@]3(C)[C@H](C(=O)C=C4[C@@]5(C)C=C(C#N)C(=O)C(C)(C)[C@@H]5CC[C@]43C)[C@@H]2C1` [TX64124] was 3.4 nM.
